Reference: ChEMBL document CHEMBL1147101, “Development and persistence of antimicrobial resistance in Pseudomonas aeruginosa: a longitudinal observation in mechanically ventilated patients” (Antimicrob Agents Chemother, 2007)
Active and inactive are the calls of the source. The rule behind the calls is not given here.

Columns and labels:
Type in all cases: functional, organism-based
Conditions in all cases: Trachea
[1] = system: Pseudomonas aeruginosa; experiment: Antimicrobial activity against Pseudomonas aeruginosa 65.33-4 tracheal isolates from mechanically ventilated tuberculosis patient
[2] = system: Pseudomonas aeruginosa; experiment: Antimicrobial activity against Pseudomonas aeruginosa 2C1 tracheal isolates from mechanically ventilated tuberculosis patient
[3] = system: Pseudomonas aeruginosa; experiment: Antimicrobial activity against Pseudomonas aeruginosa 65.38-1 tracheal isolates from mechanically ventilated tuberculosis patient
[4] = system: Pseudomonas aeruginosa; experiment: Antimicrobial activity against Pseudomonas aeruginosa 8C4 tracheal isolates from mechanically ventilated chronic respiratory insufficiency patient
[5] = system: Pseudomonas aeruginosa; experiment: Antimicrobial activity against Pseudomonas aeruginosa 8B11 tracheal isolates from mechanically ventilated chronic respiratory insufficiency patient
[6] = system: Pseudomonas aeruginosa; experiment: Antimicrobial activity against Pseudomonas aeruginosa 2A7 tracheal isolates from mechanically ventilated tuberculosis patient
[7] = system: Pseudomonas aeruginosa; experiment: Antimicrobial activity against Pseudomonas aeruginosa 2F6 tracheal isolates from mechanically ventilated tuberculosis patient
[8] = system: Pseudomonas aeruginosa; experiment: Antimicrobial activity against Pseudomonas aeruginosa 5F2 tracheal isolates from mechanically ventilated chronic respiratory insufficiency patient
[9] = system: Pseudomonas aeruginosa; experiment: Antimicrobial activity against Pseudomonas aeruginosa 12B2 tracheal isolates from mechanically ventilated chronic respiratory insufficiency patient
[10] = system: Pseudomonas aeruginosa; experiment: Antimicrobial activity against Pseudomonas aeruginosa 22D9 tracheal isolates from mechanically ventilated chronic respiratory insufficiency patient
[11] = system: Pseudomonas aeruginosa; experiment: Antimicrobial activity against Pseudomonas aeruginosa 5F8 tracheal isolates from mechanically ventilated chronic respiratory insufficiency patient
[12] = system: Pseudomonas aeruginosa; experiment: Antimicrobial activity against Pseudomonas aeruginosa 24E5 tracheal isolates from mechanically ventilated chronic respiratory insufficiency patient
[13] = system: Pseudomonas aeruginosa; experiment: Antimicrobial activity against Pseudomonas aeruginosa 24G1 tracheal isolates from mechanically ventilated chronic respiratory insufficiency patient
[14] = system: Pseudomonas aeruginosa; experiment: Antimicrobial activity against Pseudomonas aeruginosa 8A12 tracheal isolates from mechanically ventilated chronic respiratory insufficiency patient
[15] = system: Pseudomonas aeruginosa; experiment: Antimicrobial activity against Pseudomonas aeruginosa 1B9 tracheal isolates from mechanically ventilated tuberculosis patient
[16] = system: Pseudomonas aeruginosa; experiment: Antimicrobial activity against Pseudomonas aeruginosa 9A7 tracheal isolates from mechanically ventilated chronic respiratory insufficiency patient
[17] = system: Pseudomonas aeruginosa; experiment: Antimicrobial activity against Pseudomonas aeruginosa 19B6 tracheal isolates from mechanically ventilated chronic respiratory insufficiency patient
[18] = system: Pseudomonas aeruginosa; experiment: Antimicrobial activity against Pseudomonas aeruginosa 22E1 tracheal isolates from mechanically ventilated chronic respiratory insufficiency patient
[19] = system: Pseudomonas aeruginosa; experiment: Antimicrobial activity against Pseudomonas aeruginosa 65.68-3 tracheal isolates from mechanically ventilated tuberculosis patient
[20] = system: Pseudomonas aeruginosa; experiment: Antimicrobial activity against Pseudomonas aeruginosa 10A9 tracheal isolates from mechanically ventilated chronic respiratory insufficiency patient
[21] = system: Pseudomonas aeruginosa; experiment: Antimicrobial activity against Pseudomonas aeruginosa 2C2 tracheal isolates from mechanically ventilated tuberculosis patient
[22] = system: Pseudomonas aeruginosa; experiment: Antimicrobial activity against Pseudomonas aeruginosa 29F6 tracheal isolates from mechanically ventilated chronic respiratory insufficiency patient
[23] = system: Pseudomonas aeruginosa; experiment: Antimicrobial activity against Pseudomonas aeruginosa 15G2 tracheal isolates from mechanically ventilated chronic respiratory insufficiency patient
[24] = system: Pseudomonas aeruginosa; experiment: Antimicrobial activity against Pseudomonas aeruginosa 65.68-1 tracheal isolates from mechanically ventilated tuberculosis patient
[25] = system: Pseudomonas aeruginosa; experiment: Antimicrobial activity against Pseudomonas aeruginosa 2A2 tracheal isolates from mechanically ventilated tuberculosis patient
[26] = system: Pseudomonas aeruginosa; experiment: Antimicrobial activity against Pseudomonas aeruginosa 65.68-2 tracheal isolates from mechanically ventilated tuberculosis patient
[27] = system: Pseudomonas aeruginosa; experiment: Antimicrobial activity against Pseudomonas aeruginosa 9B2 tracheal isolates from mechanically ventilated chronic respiratory insufficiency patient
[28] = system: Pseudomonas aeruginosa; experiment: Antimicrobial activity against Pseudomonas aeruginosa 65.36-2 tracheal isolates from mechanically ventilated tuberculosis patient
[29] = system: Pseudomonas aeruginosa; experiment: Antimicrobial activity against Pseudomonas aeruginosa 22E3 tracheal isolates from mechanically ventilated chronic respiratory insufficiency patient
[30] = system: Pseudomonas aeruginosa; experiment: Antimicrobial activity against Pseudomonas aeruginosa 19B3 tracheal isolates from mechanically ventilated chronic respiratory insufficiency patient
[31] = system: Pseudomonas aeruginosa; experiment: Antimicrobial activity against Pseudomonas aeruginosa 29G6 tracheal isolates from mechanically ventilated chronic respiratory insufficiency patient
[32] = system: Pseudomonas aeruginosa; experiment: Antimicrobial activity against Pseudomonas aeruginosa 12A3 tracheal isolates from mechanically ventilated chronic respiratory insufficiency patient
[33] = system: Pseudomonas aeruginosa; experiment: Antimicrobial activity against Pseudomonas aeruginosa 3B1 tracheal isolates from mechanically ventilated tuberculosis patient
[34] = system: Pseudomonas aeruginosa; experiment: Antimicrobial activity against Pseudomonas aeruginosa 9A10 tracheal isolates from mechanically ventilated chronic respiratory insufficiency patient
[35] = system: Pseudomonas aeruginosa; experiment: Antimicrobial activity against Pseudomonas aeruginosa 22D2 tracheal isolates from mechanically ventilated chronic respiratory insufficiency patient
[36] = system: Pseudomonas aeruginosa; experiment: Antimicrobial activity against Pseudomonas aeruginosa 19E2 tracheal isolates from mechanically ventilated chronic respiratory insufficiency patient
[37] = system: Pseudomonas aeruginosa; experiment: Antimicrobial activity against Pseudomonas aeruginosa 10B3 tracheal isolates from mechanically ventilated chronic respiratory insufficiency patient
[38] = system: Pseudomonas aeruginosa; experiment: Antimicrobial activity against Pseudomonas aeruginosa 22D6 tracheal isolates from mechanically ventilated chronic respiratory insufficiency patient
[39] = system: Pseudomonas aeruginosa; experiment: Antimicrobial activity against Pseudomonas aeruginosa 9A1 tracheal isolates from mechanically ventilated chronic respiratory insufficiency patient
[40] = system: Pseudomonas aeruginosa; experiment: Antimicrobial activity against Pseudomonas aeruginosa 65.38-3 tracheal isolates from mechanically ventilated tuberculosis patient
[41] = system: Pseudomonas aeruginosa; experiment: Antimicrobial activity against Pseudomonas aeruginosa 65.68-4 tracheal isolates from mechanically ventilated tuberculosis patient
[42] = system: Pseudomonas aeruginosa; experiment: Antimicrobial activity against Pseudomonas aeruginosa 1A9 tracheal isolates from mechanically ventilated tuberculosis patient
[43] = system: Pseudomonas aeruginosa; experiment: Antimicrobial activity against Pseudomonas aeruginosa 3D10 tracheal isolates from mechanically ventilated chronic respiratory insufficiency patient
[44] = system: Pseudomonas aeruginosa; experiment: Antimicrobial activity against Pseudomonas aeruginosa 8A2 tracheal isolates from mechanically ventilated chronic respiratory insufficiency patient
[45] = system: Pseudomonas aeruginosa; experiment: Antimicrobial activity against Pseudomonas aeruginosa 10A6 tracheal isolates from mechanically ventilated chronic respiratory insufficiency patient
[46] = system: Pseudomonas aeruginosa; experiment: Antimicrobial activity against Pseudomonas aeruginosa 3D1 tracheal isolates from mechanically ventilated chronic respiratory insufficiency patient
[47] = system: Pseudomonas aeruginosa; experiment: Antimicrobial activity against Pseudomonas aeruginosa 22C5 tracheal isolates from mechanically ventilated chronic respiratory insufficiency patient
[48] = system: Pseudomonas aeruginosa; experiment: Antimicrobial activity against Pseudomonas aeruginosa 10B1 tracheal isolates from mechanically ventilated chronic respiratory insufficiency patient
[49] = system: Pseudomonas aeruginosa; experiment: Antimicrobial activity against Pseudomonas aeruginosa 5G3 tracheal isolates from mechanically ventilated chronic respiratory insufficiency patient
[50] = system: Pseudomonas aeruginosa; experiment: Antimicrobial activity against Pseudomonas aeruginosa 9A3 tracheal isolates from mechanically ventilated chronic respiratory insufficiency patient
[51] = system: Pseudomonas aeruginosa; experiment: Antimicrobial activity against Pseudomonas aeruginosa 2A6 tracheal isolates from mechanically ventilated tuberculosis patient
[52] = system: Pseudomonas aeruginosa; experiment: Antimicrobial activity against Pseudomonas aeruginosa 2A3 tracheal isolates from mechanically ventilated tuberculosis patient
[53] = system: Pseudomonas aeruginosa; experiment: Antimicrobial activity against Pseudomonas aeruginosa 2A5 tracheal isolates from mechanically ventilated chronic respiratory insufficiency patient
[54] = system: Pseudomonas aeruginosa; experiment: Antimicrobial activity against Pseudomonas aeruginosa 2A9 tracheal isolates from mechanically ventilated tuberculosis patient
[55] = system: Pseudomonas aeruginosa; experiment: Antimicrobial activity against Pseudomonas aeruginosa 2A5 tracheal isolates from mechanically ventilated tuberculosis patient
[56] = system: Pseudomonas aeruginosa; experiment: Antimicrobial activity against Pseudomonas aeruginosa 65.33-2 tracheal isolates from mechanically ventilated tuberculosis patient
[57] = system: Pseudomonas aeruginosa; experiment: Antimicrobial activity against Pseudomonas aeruginosa 5H6 tracheal isolates from mechanically ventilated chronic respiratory insufficiency patient
[58] = system: Pseudomonas aeruginosa; experiment: Antimicrobial activity against Pseudomonas aeruginosa 12A7 tracheal isolates from mechanically ventilated chronic respiratory insufficiency patient
[59] = system: Pseudomonas aeruginosa; experiment: Antimicrobial activity against Pseudomonas aeruginosa 29G8 tracheal isolates from mechanically ventilated chronic respiratory insufficiency patient

`C[C@@H](O)[C@H]1C(=O)N2C(C(=O)O)=C(SCCNC=N)C[C@H]12` was tested, and the Activity [1] was “inactive”, the Activity [2] was “inactive” and the Activity [3] was “inactive”. The Activity [4] was “Active”, the Activity [5] was “Active” and the Activity [6] was “inactive”. For the same compound, the Activity [7] was “inactive”, the Activity [8] was “Active” and the Activity [9] was “Active”. For the same compound, the Activity [10] was “Active”, the Activity [11] was “Active” and the Activity [12] was “Active”. The Activity [13] was “Active”, the Activity [14] was “Active” and the Activity [15] was “inactive”. For the same compound, the Activity [16] was “Active”, the Activity [17] was “Active” and the Activity [18] was “Active”. For the same compound, the Activity [19] was “inactive”, the Activity [20] was “Active” and the Activity [21] was “inactive”. The Activity [22] was “Active”, the Activity [23] was “Active” and the Activity [24] was “inactive”. For the same compound, the Activity [25] was “inactive”, the Activity [26] was “inactive” and the Activity [27] was “Active”. For the same compound, the Activity [28] was “inactive”, the Activity [29] was “Active” and the Activity [30] was “Active”. The Activity [31] was “Active”, the Activity [32] was “Active” and the Activity [33] was “inactive”. The Activity [34] was “Active”, the Activity [35] was “Active” and the Activity [36] was “Active”. The Activity [37] was “Active”, the Activity [38] was “Active” and the Activity [39] was “Active”. The Activity [40] was “inactive”, the Activity [41] was “inactive” and the Activity [42] was “inactive”. The Activity [43] was “Active”, the Activity [44] was “Active” and the Activity [45] was “Active”. For the same compound, the Activity [46] was “Active”, the Activity [47] was “Active” and the Activity [48] was “Active”. The Activity [49] was “Active”, the Activity [50] was “Active” and the Activity [51] was “inactive”. For the same compound, the Activity [52] was “inactive”, the Activity [53] was “Active” and the Activity [54] was “inactive”. The Activity [55] was “Active”, the Activity [56] was “inactive” and the Activity [57] was “Active”. For the same compound, the Activity [58] was “Active”.
With GENTAMICIN the Activity [1] was “Active”, the Activity [2] was “inactive” and the Activity [3] was “inactive”. For the same compound, the Activity [4] was “Active”, the Activity [5] was “Active” and the Activity [6] was “inactive”. For the same compound, the Activity [7] was “inactive”, the Activity [8] was “Active” and the Activity [9] was “Active”. For the same compound, the Activity [10] was “Active”, the Activity [11] was “Active” and the Activity [13] was “Active”. For the same compound, the Activity [14] was “Active”, the Activity [15] was “inactive” and the Activity [16] was “Active”. The Activity [17] was “Active”, the Activity [18] was “Active” and the Activity [19] was “inactive”. The Activity [20] was “Active”, the Activity [22] was “Active” and the Activity [23] was “Active”. The Activity [26] was “inactive”, the Activity [27] was “Active” and the Activity [28] was “inactive”. The Activity [29] was “Active”, the Activity [30] was “Active” and the Activity [31] was “Active”. The Activity [32] was “Active”, the Activity [34] was “Active” and the Activity [36] was “Active”. For the same compound, the Activity [37] was “Active”, the Activity [39] was “Active” and the Activity [40] was “inactive”. For the same compound, the Activity [41] was “Active”, the Activity [42] was “inactive” and the Activity [43] was “Active”. The Activity [44] was “Active”, the Activity [45] was “Active” and the Activity [46] was “Active”. The Activity [47] was “Active”, the Activity [48] was “Active” and the Activity [49] was “Active”. The Activity [50] was “Active”, the Activity [51] was “inactive” and the Activity [53] was “Active”. The Activity [59] was “Active”, the Activity [54] was “inactive” and the Activity [55] was “Active”. For the same compound, the Activity [56] was “Active”, the Activity [57] was “Active” and the Activity [58] was “Active”.
With `O=C(O)c1cn(C2CC2)c2cc(N3CCNCC3)c(F)cc2c1=O` the Activity [1] was “Active”, the Activity [2] was “Active” and the Activity [3] was “Active”. For the same compound, the Activity [4] was “Active”, the Activity [5] was “Active” and the Activity [6] was “Active”. The Activity [7] was “Active”, the Activity [8] was “Active” and the Activity [9] was “Active”. For the same compound, the Activity [10] was “Active”, the Activity [11] was “Active” and the Activity [12] was “Active”. The Activity [14] was “Active”, the Activity [15] was “Active” and the Activity [16] was “Active”. For the same compound, the Activity [17] was “Active”, the Activity [18] was “Active” and the Activity [19] was “Active”. The Activity [20] was “Active”, the Activity [21] was “Active” and the Activity [22] was “Active”. The Activity [23] was “inactive”, the Activity [24] was “Active” and the Activity [25] was “Active”. The Activity [26] was “Active”, the Activity [27] was “Active” and the Activity [28] was “Active”. For the same compound, the Activity [29] was “Active”, the Activity [30] was “Active” and the Activity [31] was “Active”. For the same compound, the Activity [32] was “Active”, the Activity [33] was “Active” and the Activity [34] was “Active”. For the same compound, the Activity [35] was “Active”, the Activity [36] was “Active” and the Activity [37] was “Active”. For the same compound, the Activity [38] was “Active”, the Activity [39] was “Active” and the Activity [40] was “Active”. For the same compound, the Activity [41] was “Active”, the Activity [42] was “Active” and the Activity [43] was “Active”. For the same compound, the Activity [44] was “Active”, the Activity [45] was “Active” and the Activity [46] was “Active”. For the same compound, the Activity [47] was “Active”, the Activity [48] was “Active” and the Activity [49] was “Active”. The Activity [50] was “Active”, the Activity [51] was “Active” and the Activity [52] was “Active”. The Activity [53] was “Active”, the Activity [59] was “Active” and the Activity [54] was “Active”. The Activity [55] was “Active”, the Activity [56] was “Active” and the Activity [57] was “Active”. The Activity [58] was “Active”.
